Measurements: publication PMC5218480 (PLoS ONE, 2017)

Test system: MV-4-11 cells
Test: Gene expression microarray analysis (Affymetrix PrimeView) and GSEA
Type: cell-based, human
Design: RFU PODN (11730768_x_at) / Fold change /veh PODN (11730768_x_at) / RFU LINC00158 (11744669_a_at) / Fold change /veh LINC00158 (11744669_a_at) / RFU DUSP10 (11751237_a_at) / Fold change /veh DUSP10 (11751237_a_at) / RFU ID3 (11757404_x_at) / Fold change /veh ID3 (11757404_x_at) / RFU PLEKHG5 (11737974_s_at) / Fold change /veh PLEKHG5 (11737974_s_at) / RFU LRRC4B (11730491_at) / Fold change /veh LRRC4B (11730491_at) / RFU GIMAP4 (11747438_a_at) / Fold change /veh GIMAP4 (11747438_a_at) / RFU KRT8 (11758183_x_at) / Fold change /veh KRT8 (11758183_x_at) / RFU CNN1 (11734310_a_at) / Fold change /veh CNN1 (11734310_a_at) / RFU VPS37D (11726825_at) / Fold change /veh VPS37D (11726825_at) / RFU C10orf10 (11716522_x_at) / Fold change /veh C10orf10 (11716522_x_at) / RFU KIR2DL2 /// KIR2DL4 /// KIR2DL5A /// KIR2DL5B /// KIR2DS1 /// KIR2DS2 /// KIR2DS3 /// KIR2DS4 /// KIR3DL3 /// KIR3DL3 /// KIR3DS1 (11738374_at) / Fold change /veh KIR2DL2 /// KIR2DL4 /// KIR2DL5A /// KIR2DL5B /// KIR2DS1 /// KIR2DS2 /// KIR2DS3 /// KIR2DS4 /// KIR3DL3 /// KIR3DL3 /// KIR3DS1 (11738374_at) / RFU C1QL1 (11718748_at) / Fold change /veh C1QL1 (11718748_at) / RFU TMPRSS4 (11747572_a_at) / Fold change /veh TMPRSS4 (11747572_a_at) / RFU HAMP (11756126_x_at) / Fold change /veh HAMP (11756126_x_at) / RFU RNFT2 (11725882_a_at) / Fold change /veh RNFT2 (11725882_a_at) / RFU NR4A2 (11747474_a_at) / Fold change /veh NR4A2 (11747474_a_at) / RFU ABCC12 (11746883_a_at) / Fold change /veh ABCC12 (11746883_a_at) / RFU TMEM136 (11760407_x_at) / Fold change /veh TMEM136 (11760407_x_at) / RFU CLDN22 /// WWC2 (11732394_at) / Fold change /veh CLDN22 /// WWC2 (11732394_at) / RFU HLA-DPB1 (11760878_x_at) / Fold change /veh HLA-DPB1 (11760878_x_at) / RFU SPINT1 (11716480_a_at) / Fold change /veh SPINT1 (11716480_a_at) / RFU GAP43 (11754022_s_at) / Fold change /veh GAP43 (11754022_s_at) / RFU A4GNT (11735810_at) / Fold change /veh A4GNT (11735810_at) / RFU PRB3 (11715151_x_at) / Fold change /veh PRB3 (11715151_x_at) / RFU TUBB4B (11761932_at) / Fold change /veh TUBB4B (11761932_at) / RFU CAPN14 (11732068_a_at) / Fold change /veh CAPN14 (11732068_a_at) / RFU TMCC2 (11721928_a_at) / Fold change /veh TMCC2 (11721928_a_at) / RFU IRGQ (11745062_a_at) / Fold change /veh IRGQ (11745062_a_at) / RFU FAM174B (11720279_a_at) / Fold change /veh FAM174B (11720279_a_at) / RFU TMPRSS4 (11748680_a_at) / Fold change /veh TMPRSS4 (11748680_a_at) / RFU FAM212B (11763350_a_at) / Fold change /veh FAM212B (11763350_a_at) / RFU PLEKHG5 (11743358_a_at) / Fold change /veh PLEKHG5 (11743358_a_at) / RFU ZSCAN30 (11745921_a_at) / Fold change /veh ZSCAN30 (11745921_a_at) / RFU CMKLR1 (11741424_a_at) / Fold change /veh CMKLR1 (11741424_a_at) / RFU LOC101060620 /// MAPK8IP1 (11723275_at) / Fold change /veh LOC101060620 /// MAPK8IP1 (11723275_at) / RFU SPTSSB (11747773_x_at) / Fold change /veh SPTSSB (11747773_x_at) / RFU PRSS12 (11739890_at) / Fold change /veh PRSS12 (11739890_at) / RFU BIN1 (11741810_x_at) / Fold change /veh BIN1 (11741810_x_at) / RFU WNT11 (11732464_a_at) / Fold change /veh WNT11 (11732464_a_at) / RFU C10orf10 (11716521_a_at) / Fold change /veh C10orf10 (11716521_a_at) / RFU C5orf56 (11738089_at) / Fold change /veh C5orf56 (11738089_at) / RFU CYB561 (11721691_x_at) / Fold change /veh CYB561 (11721691_x_at) / RFU ANKRD19P (11752326_a_at) / Fold change /veh ANKRD19P (11752326_a_at) / RFU OR2T12 /// OR2T33 /// OR2T8 (11738714_s_at) / Fold change /veh OR2T12 /// OR2T33 /// OR2T8 (11738714_s_at) / RFU VCAN (11748164_a_at) / Fold change /veh VCAN (11748164_a_at) / RFU JSRP1 (11732532_at) / Fold change /veh JSRP1 (11732532_at) / RFU KRTAP10-11 (11738290_x_at) / Fold change /veh KRTAP10-11 (11738290_x_at) / RFU MYO3A (11730013_a_at) / Fold change /veh MYO3A (11730013_a_at) / RFU EBF3 (11725865_a_at) / Fold change /veh EBF3 (11725865_a_at) / RFU CAMK2N1 (11719241_x_at) / Fold change /veh CAMK2N1 (11719241_x_at) / RFU C5orf56 (11738088_a_at) / Fold change /veh C5orf56 (11738088_a_at) / RFU OLFML3 (11715873_a_at) / Fold change /veh OLFML3 (11715873_a_at) / RFU LOC100653217 /// NTM (11731650_a_at) / Fold change /veh LOC100653217 /// NTM (11731650_a_at) / RFU MAPK11 (11762145_a_at) / Fold change /veh MAPK11 (11762145_a_at) / RFU FIZ1 (11724087_x_at) / Fold change /veh FIZ1 (11724087_x_at) / RFU OASL (11726364_x_at) / Fold change /veh OASL (11726364_x_at) / RFU SOX15 (11748057_x_at) / Fold change /veh SOX15 (11748057_x_at) / RFU CD79A (11719716_a_at) / Fold change /veh CD79A (11719716_a_at) / RFU HIST1H1D (11736915_at) / Fold change /veh HIST1H1D (11736915_at) / RFU CASKIN2 (11723855_a_at) / Fold change /veh CASKIN2 (11723855_a_at) / RFU LOC730098 (11760151_x_at) / Fold change /veh LOC730098 (11760151_x_at) / RFU OR4N2 (11742367_at) / Fold change /veh OR4N2 (11742367_at) / RFU PRRT2 (11749266_a_at) / Fold change /veh PRRT2 (11749266_a_at) / RFU SNX32 (11753110_a_at) / Fold change /veh SNX32 (11753110_a_at) / RFU CDHR5 (11726645_a_at) / Fold change /veh CDHR5 (11726645_a_at) / RFU RCAN1 (11760418_a_at) / Fold change /veh RCAN1 (11760418_a_at) / RFU FAM167A (11723789_a_at) / Fold change /veh FAM167A (11723789_a_at) / RFU FAM26E (11764081_at) / Fold change /veh FAM26E (11764081_at) / RFU ISYNA1 (11749810_s_at) / Fold change /veh ISYNA1 (11749810_s_at) / RFU ACY1 (11761880_at) / Fold change /veh ACY1 (11761880_at) / RFU 11764098_at / Fold change /veh 11764098_at / RFU SAMD14 (11745864_x_at) / Fold change /veh SAMD14 (11745864_x_at) / RFU NPB (11741838_a_at) / Fold change /veh NPB (11741838_a_at) / RFU TMPRSS6 (11731388_a_at) / Fold change /veh TMPRSS6 (11731388_a_at) / RFU KRTAP10-2 (11738614_at) / Fold change /veh KRTAP10-2 (11738614_at) / RFU ARHGAP8 /// PRR5-ARHGAP8 (11727945_x_at) / Fold change /veh ARHGAP8 /// PRR5-ARHGAP8 (11727945_x_at) / RFU KRTAP5-7 /// NADSYN1 (11734609_at) / Fold change /veh KRTAP5-7 /// NADSYN1 (11734609_at) / RFU RASL12 (11751679_a_at) / Fold change /veh RASL12 (11751679_a_at) / RFU CDKN2B (11736163_a_at) / Fold change /veh CDKN2B (11736163_a_at) / RFU PRF1 (11729649_at) / Fold change /veh PRF1 (11729649_at) / RFU, ZNF638 /// ZNF638-IT1 / Fold change vs veh, ZNF638 /// ZNF638-IT1 / RFU, PANK3 / Fold change vs veh, PANK3 / RFU, SH3YL1 / Fold change vs veh, SH3YL1 / RFU, ZEB2 / Fold change vs veh, ZEB2 / RFU, NRIP1 / Fold change vs veh, NRIP1 / RFU, PTTG1IP / Fold change vs veh, PTTG1IP / RFU, CAPN2 / Fold change vs veh, CAPN2 / RFU, MED14 / Fold change vs veh, MED14 / RFU, SNORA58 / Fold change vs veh, SNORA58 / RFU, C1orf63 / Fold change vs veh, C1orf63 / RFU, LRRFIP1 / Fold change vs veh, LRRFIP1 / RFU, NDUFAF7 / Fold change vs veh, NDUFAF7 / RFU, SLC12A2 / Fold change vs veh, SLC12A2 / RFU, IBTK / Fold change vs veh, IBTK / RFU, ESF1 / Fold change vs veh, ESF1 / Fold change vs veh, TMEM50B / RFU, TAOK1 / Fold change vs veh, TAOK1 / RFU, ACBD3 / Fold change vs veh, ACBD3 / RFU, TMA16 / Fold change vs veh, TMA16 / RFU, RWDD3 / Fold change vs veh, RWDD3 / RFU, BCAT1 / Fold change vs veh, BCAT1 / RFU, EDEM3 / Fold change vs veh, EDEM3 / RFU, TMEM33 / Fold change vs veh, TMEM33 / RFU, WDR75 / Fold change vs veh, WDR75 / RFU, AHCTF1 / Fold change vs veh, AHCTF1 / RFU, TFRC / Fold change vs veh, TFRC / RFU, ZDHHC17 / Fold change vs veh, ZDHHC17 / RFU, NOM1 / Fold change vs veh, NOM1 / RFU, ARL8B / Fold change vs veh, ARL8B / RFU, ZBTB11 / Fold change vs veh, ZBTB11 / RFU, TAMM41 / Fold change vs veh, TAMM41 / RFU, KIAA1704 /// LOC100996395 / Fold change vs veh, KIAA1704 /// LOC100996395 / RFU, ING1 / Fold change vs veh, ING1 / RFU, TRMT61B / Fold change vs veh, TRMT61B / RFU, FUBP3 / Fold change vs veh, FUBP3 / RFU, TP53 / Fold change vs veh, TP53 / RFU, TNKS2 / Fold change vs veh, TNKS2 / RFU, ZFP14 / Fold change vs veh, ZFP14 / RFU, ACTR2 / Fold change vs veh, ACTR2 / RFU, PPP3R1 / Fold change vs veh, PPP3R1 / RFU, PIK3R1 / Fold change vs veh, PIK3R1 / RFU, HNRNPA1 / Fold change vs veh, HNRNPA1 / RFU, RNF170 / Fold change vs veh, RNF170 / RFU, ZNF28 / Fold change vs veh, ZNF28 / RFU, RNGTT / Fold change vs veh, RNGTT / RFU, OGT / Fold change vs veh, OGT / RFU, BRD1 / Fold change vs veh, BRD1 / RFU, MARS / Fold change vs veh, MARS / RFU, ZNF655 / Fold change vs veh, ZNF655 / RFU, FAHD1 / Fold change vs veh, FAHD1 / RFU, BDP1 / Fold change vs veh, BDP1 / RFU, LRRCC1 / Fold change vs veh, LRRCC1 / RFU, ARID1A / Fold change vs veh, ARID1A / RFU, ZNF146 / Fold change vs veh, ZNF146 / RFU, ZNF330 / Fold change vs veh, ZNF330 / RFU, GPN3 / Fold change vs veh, GPN3 / RFU, C9orf123 / Fold change vs veh, C9orf123 / RFU, N4BP2L2 / Fold change vs veh, N4BP2L2 / RFU, ARFIP1 / Fold change vs veh, ARFIP1 / RFU, FAM179B / Fold change vs veh, FAM179B / RFU, BCL10 / Fold change vs veh, BCL10 / RFU, UHRF1BP1L / Fold change vs veh, UHRF1BP1L / RFU, BET1 / Fold change vs veh, BET1 / RFU, CNOT2 / Fold change vs veh, CNOT2 / RFU, ZNF268 / Fold change vs veh, ZNF268 / Fold change vs veh, ZNF507 / RFU, DGCR2 / Fold change vs veh, DGCR2 / RFU, WDSUB1 / Fold change vs veh, WDSUB1 / Fold change vs veh, HSP90B1 /// MIR3652 / RFU, ADSS / Fold change vs veh, ADSS / RFU, GK / Fold change vs veh, GK / RFU, ZNF148 / Fold change vs veh, ZNF148 / RFU, TAF9 / Fold change vs veh, TAF9 / RFU, SLC1A5 / Fold change vs veh, SLC1A5 / RFU, SLMO2 / Fold change vs veh, SLMO2 / RFU, ABCC4 / Fold change vs veh, ABCC4 / RFU, LOC101060439 /// RAP1B / Fold change vs veh, LOC101060439 /// RAP1B / RFU, RFX7 / Fold change vs veh, RFX7 / RFU, GTPBP10 / Fold change vs veh, GTPBP10 / RFU, CNEP1R1 / Fold change vs veh, CNEP1R1 / RFU, BIVM-ERCC5 /// ERCC5 / Fold change vs veh, BIVM-ERCC5 /// ERCC5 / RFU, ILF3 / Fold change vs veh, ILF3 / RFU 11762660_at / Fold change /veh 11762660_at / RFU VCAN (11757783_s_at) / Fold change /veh VCAN (11757783_s_at) / RFU DDX43 (11728927_at) / Fold change /veh DDX43 (11728927_at) / RFU KRT8 (11758188_x_at) / Fold change /veh KRT8 (11758188_x_at) / RFU NKD1 (11759106_at) / Fold change /veh NKD1 (11759106_at) / RFU SRD5A1 (11742802_a_at) / Fold change /veh SRD5A1 (11742802_a_at) / RFU TPSAB1 /// TPSB2 (11721975_s_at) / Fold change /veh TPSAB1 /// TPSB2 (11721975_s_at) / RFU GSTM3 (11746129_a_at) / Fold change /veh GSTM3 (11746129_a_at) / RFU IL23R (11737362_x_at) / Fold change /veh IL23R (11737362_x_at) / RFU TMEM51 (11727254_a_at) / Fold change /veh TMEM51 (11727254_a_at) / RFU PIWIL2 (11732686_x_at) / Fold change /veh PIWIL2 (11732686_x_at) / RFU ORM1 (11744905_x_at) / Fold change /veh ORM1 (11744905_x_at) / RFU CCDC152 (11743942_at) / Fold change /veh CCDC152 (11743942_at) / RFU ECM1 (11717891_a_at) / Fold change /veh ECM1 (11717891_a_at) / RFU IL23R (11748794_a_at) / Fold change /veh IL23R (11748794_a_at) / RFU TNFAIP8L3 (11732012_x_at) / Fold change /veh TNFAIP8L3 (11732012_x_at) / RFU MBOAT4 (11741988_at) / Fold change /veh MBOAT4 (11741988_at) / RFU 11764193_at / Fold change /veh 11764193_at / RFU TMEM53 (11763286_at) / Fold change /veh TMEM53 (11763286_at) / RFU MAGEB2 (11727129_at) / Fold change /veh MAGEB2 (11727129_at) / RFU TMEM200A (11744735_a_at) / Fold change /veh TMEM200A (11744735_a_at) / RFU CCDC152 (11751479_a_at) / Fold change /veh CCDC152 (11751479_a_at) / RFU FAM211A (11726209_a_at) / Fold change /veh FAM211A (11726209_a_at) / RFU RGS16 (11746705_a_at) / Fold change /veh RGS16 (11746705_a_at) / RFU VCAN (11755009_s_at) / Fold change /veh VCAN (11755009_s_at) / RFU RHOB (11743442_s_at) / Fold change /veh RHOB (11743442_s_at) / RFU RGS16 (11720943_a_at) / Fold change /veh RGS16 (11720943_a_at) / RFU RGS16 (11720944_at) / Fold change /veh RGS16 (11720944_at) / RFU, VPS4B / Fold change vs veh, VPS4B / RFU, CREB1 / Fold change vs veh, CREB1 / RFU, DNAJC13 / Fold change vs veh, DNAJC13 / RFU, GNAQ / Fold change vs veh, GNAQ / RFU, CDK5R1 / Fold change vs veh, CDK5R1 / RFU, ZRANB3 / Fold change vs veh, ZRANB3 / RFU, CUL4A / Fold change vs veh, CUL4A / RFU, CCNY / Fold change vs veh, CCNY / RFU, UFL1 / Fold change vs veh, UFL1 / RFU, COG3 / Fold change vs veh, COG3 / RFU, DIAPH2 / Fold change vs veh, DIAPH2 / RFU, SKA2 / Fold change vs veh, SKA2 / RFU, AFF3 / Fold change vs veh, AFF3 / RFU, LMF1 / Fold change vs veh, LMF1 / RFU, IPO11 / Fold change vs veh, IPO11 / RFU, DFFB / Fold change vs veh, DFFB / RFU, FOXP1 / Fold change vs veh, FOXP1 / RFU, CARD8 / Fold change vs veh, CARD8 / RFU, STRN3 / Fold change vs veh, STRN3 / RFU, ADK / Fold change vs veh, ADK / RFU, RASSF2 / Fold change vs veh, RASSF2 / RFU, WIPF1 / Fold change vs veh, WIPF1 / RFU, LARP1B / Fold change vs veh, LARP1B / RFU, RASA1 / Fold change vs veh, RASA1 / RFU, RB1 / Fold change vs veh, RB1 / RFU, PPFIA1 / Fold change vs veh, PPFIA1 / RFU, MAT2A / Fold change vs veh, MAT2A / RFU, CCT5 / Fold change vs veh, CCT5 / RFU, WDR92 / Fold change vs veh, WDR92 / RFU, CUX1 / Fold change vs veh, CUX1 / RFU, TTC7A / Fold change vs veh, TTC7A / RFU, TMEM135 / Fold change vs veh, TMEM135 / RFU, DEPTOR / Fold change vs veh, DEPTOR / RFU, CPM / Fold change vs veh, CPM / RFU, DNAJB6 / Fold change vs veh, DNAJB6 / RFU, CACNA2D3 / Fold change vs veh, CACNA2D3 / RFU, DTX4 / Fold change vs veh, DTX4 / RFU, TFCP2 / Fold change vs veh, TFCP2 / RFU, GMCL1 /// GMCL1P1 / Fold change vs veh, GMCL1 /// GMCL1P1 / RFU, AEBP2 / Fold change vs veh, AEBP2 / RFU, SNHG1 /// SNORD22 /// SNORD25 /// SNORD26 /// SNORD27 /// SNORD28 /// SNORD29 /// SNORD31 / Fold change vs veh, SNHG1 /// SNORD22 /// SNORD25 /// SNORD26 /// SNORD27 /// SNORD28 /// SNORD29 /// SNORD31 / Fold change (Aza/veh), C12orf56 (ProbeSet 11735607_a_at) / Fold change (ACY-1035/veh), C12orf56 (ProbeSet 11735607_a_at) / Fold change (Aza/veh), FGFR1OP (ProbeSet 11751329_s_at) / Fold change (ACY-1035/veh), FGFR1OP (ProbeSet 11751329_s_at) / Fold change (Aza/veh), VPS36 (ProbeSet 11739960_a_at) / Fold change (ACY-1035/veh), VPS36 (ProbeSet 11739960_a_at) / RFU SYPL1 (11715823_x_at) / Fold change /veh SYPL1 (11715823_x_at) / RFU IGFBP7 (11715501_s_at) / Fold change /veh IGFBP7 (11715501_s_at) / RFU REEP3 (11722064_at) / Fold change /veh REEP3 (11722064_at) / RFU IGLL1 (11728026_x_at) / Fold change /veh IGLL1 (11728026_x_at): dose or concentration left out as unconfirmed
Settings: ProbeSet 11741123_x_at; LIST D

For Nc1ccc(-c2cccs2)cc1NC(=O)c1ccc2c(c1)cc(C1CC1)n2CCN1CCOCC1 [ACY-1035], the “RFU, ADK” value was 253.83 RFU.
